Biological target: human recombinant renin (Homo sapiens (Human), UniProt P00797)
Experiment: human renin activity inhibition (SensoLyte 520 Renin Assay Kit Fluorimetric)
Format: biochemical
Conditions: 30 min preincubation at 37° C., fluorescence at 530 nm after 15 min at 37° C., read-out: IC50 (nM), inhibitory effect on human renin activity
Experimental: The exemplary compounds of the disclosure were tested for their inhibitory effects on human renin activity, using a commercially available renin assay kit (SensoLyte® 520 Renin Assay Kit Fluorimetric), following the manufacture's manual.
Briefly, human recombinant renin (from the kit) was incubated with the compound of the disclosure or buffer for 30 min at 37° C. before substrate addition. Fluorescence intensity was measured at 530 nm after an incubation of 15 min at 37° C. Data was analyzed by Prism and fitted into a sigmodal curve for IC50 calculation.

Chain of human recombinant renin (P00797 67-406): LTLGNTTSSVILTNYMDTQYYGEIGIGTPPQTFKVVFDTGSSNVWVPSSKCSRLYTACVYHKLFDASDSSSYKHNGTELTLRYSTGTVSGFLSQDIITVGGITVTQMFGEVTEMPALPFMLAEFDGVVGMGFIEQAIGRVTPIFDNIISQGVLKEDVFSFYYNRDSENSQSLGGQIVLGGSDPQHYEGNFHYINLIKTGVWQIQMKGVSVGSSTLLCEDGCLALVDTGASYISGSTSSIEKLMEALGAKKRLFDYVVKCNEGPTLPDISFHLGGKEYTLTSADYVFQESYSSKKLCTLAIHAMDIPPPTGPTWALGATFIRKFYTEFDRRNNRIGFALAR

`CO[C@H]1C[C@@H](Nc2cc(C3CC3)cnc2C(=O)N(CC(C)C)C2CNCC(C(=O)N3CCOCC3)C2)C1` (stereo partly drawn) [Compound 19, (3S)—{N-(2-methylpropyl), N-{5-cyclopropyl-3-[3-(cis-methoxy)cyclobutyl]amino}pyridine-2-carbonyl}amino-(5R)-(morpholine-N-carbonyl)-piperidine] and `CO[C@H]1C[C@H](Nc2cc(C3CC3)cnc2C(=O)N(CC(C)C)C2CNCC(C(=O)N3CCOCC3)C2)C1` (stereo partly drawn) [Compound 18, (3S)—{N-(2-methylpropyl), N-{5-cyclopropyl-3-[3-(trans-methoxy)cyclobutyl]amino}pyridine-2-carbonyl}amino-(5R)-(morpholine-N-carbonyl)-piperidine] are within 1.5-fold of each other in IC50: 1.5 nM for the first, 1.2 nM for the second.

`CO[C@H]1C[C@H](Nc2nc(C3CC3)ncc2C(=O)N(CC(C)C)[C@@H]2CNC[C@H](C(=O)N3CCOC[C@@H]3C)C2)C1` [Compound 46, (3S)—{N-(2-methylpropyl), N-{2-cyclopropyl-3-[3-(trans-methoxy)cyclobutyl]amino}pyrimidine-5-carbonyl}amino-(5R)-[(3S)-methylmorpholine-N-carbonyl]-piperidine] and `CO[C@H]1C[C@H](Nc2cc(C3CC3)cnc2C(=O)N(CC(C)C)C2CNCC(C(=O)N3CCOC[C@@H]3C)C2)C1` (stereo partly drawn) [Compound 15, (3S)—{N-(2-methylpropyl), N-{5-cyclopropyl-3-[3-(trans-methoxy)cyclobutyl]amino}pyridine-2-carbonyl}amino-(5R)-[(3S)-methylmorpholine-N-carbonyl]-piperidine] cannot be ordered by IC50: under 250 nM for the first, 1 nM for the second.

`[2H]C([2H])([2H])O[C@H]1C[C@H](Nc2cc(C3CC3)cnc2C(=O)N(CC(C)C)[C@@H]2CNC[C@H](c3nnco3)C2)C1` [Compound 45, (3S)—{N-(2-methylpropyl), N-{5-cyclopropyl-3-[3-(trans-methoxy-d3)cyclobutyl]amino}pyridine-2-carbonyl}amino-(5R)-(1,3,4-oxadiazol-2-yl)-piperidine] and `CO[C@H]1C[C@H](Nc2cc(C3CC3)cnc2C(=O)N(CC(C)C)[C@@H]2CNC[C@H](c3nnco3)C2)C1` [Compound 40, (3S)—{N-(2-methylpropyl), N-{5-cyclopropyl-3-[3-(trans-methoxy)cyclobutyl]amino}pyridine-2-carbonyl}amino-(5R)-(1,3,4-oxadiazol-2-yl)-piperidine] cannot be ordered by IC50: under 10 nM for the first, under 10 nM for the second.

`CO[C@H]1C[C@H](Nc2cc(C3CC3)cnc2C(=O)N(CC(C)C)[C@@H]2CNCC(c3nnc(C4COC4)o3)C2)C1` (stereo in doubt) [Compound 34, (3S)—{N-(2-methylpropyl), N-{5-cyclopropyl-3-[3-(trans-methoxy)cyclobutyl]amino}pyridine-2-carbonyl}amino-(5R)-[5-(oxetan-3-yl)-1,3,4-oxadiazol-2-yl]-piperidine] and `CO[C@H]1C[C@H](Nc2cc(C3CC3)cnc2C(=O)N(CC(C)C)C2CNC[C@H](c3nnc(C)o3)C2)C1` (stereo partly drawn) [Compound 22, (3S)—{N-(2-methylpropyl), N-{5-cyclopropyl-3-[3-(trans-methoxy)cyclobutyl]amino}pyridine-2-carbonyl}amino-(5R)-(5-methyl-1,3,4-oxadiazol-2-yl)-piperidine] cannot be ordered by IC50: under 10 nM for the first, 1.3 nM for the second.

`CC(C)CN(C(=O)c1ncc(C2CC2)cc1NC1COC1)[C@H]1CCCNC1` [Compound 36, (3S)—{N-(2-methylpropyl), N-[5-cyclopropyl-3-(oxetan-3-yl)amino]pyridine-2-carbonyl}amino-piperidine] and `CO[C@H]1C[C@H](Nc2cc(C3CC3)cnc2C(=O)N(CC(C)C)[C@H]2CCCNC2)C1` [Compound 26, (3S)—{N-(2-methylpropyl), N-{5-cyclopropyl-3-[3-(trans-methoxy)cyclobutyl]amino}pyridine-2-carbonyl}amino-piperidine] cannot be ordered by IC50: under 50 nM for the first, under 20 nM for the second.

`CO[C@H]1C[C@H](Nc2cc(C3CC3)cnc2C(=O)N(CC2CC2)[C@@H]2CNCC(c3nnco3)C2)C1` (stereo in doubt) [Compound 44, (3S)—{N-cyclopropylmethyl, N-{5-cyclopropyl-3-[3-(trans-methoxy)cyclobutyl]amino}pyridine-2-carbonyl}amino-(5R)-(1,3,4-oxadiazol-2-yl)-piperidine] and `CO[C@H]1C[C@H](Nc2cc(C3CC3)cnc2C(=O)N(CC2CC2)[C@@H]2CNC[C@H](c3nnc(C)o3)C2)C1` [Compound 41] cannot be ordered by IC50: under 10 nM for the first, under 10 nM for the second.

`CC(C)CN(C(=O)c1ncc(C2CC2)cc1NC1COC1)[C@@H]1CNC[C@H](c2ncon2)C1` [Compound 42, (3S)—{N-(2-methylpropyl), N-[5-cyclopropyl-3-(oxetan-3-yl)amino]pyridine-2-carbonyl}amino-(5R)-(1,2,4-oxadiazol-3-yl)-piperidine] and `Cc1nnc(C2CNC[C@@H](N(CC(C)C)C(=O)c3ncc(C4CC4)cc3NC3COC3)C2)o1` (stereo in doubt) [Compound 37, (3S)—{N-(2-methylpropyl), N-[5-cyclopropyl-3-(oxetan-3-yl)amino]pyridine-2-carbonyl}amino-(5R)-(5-methyl-1,3,4-oxadiazol-2-yl)-piperidine] cannot be ordered by IC50: under 30 nM for the first, under 20 nM for the second.

`CO[C@H]1C[C@H](Nc2cccnc2C(=O)N(CC(C)C)[C@@H]2CNCC(c3nnc(C4CC4)o3)C2)C1` (stereo partly drawn) [Compound 31, (3S)—{N-(2-methylpropyl), N-[3-(3-trans-methoxy)cyclobutyl]amino-pyridine-2-carbonyl}amino-(5R)-(5-cyclopropyl-1,3,4-oxadiazol-2-yl)-piperidine] and `CO[C@H]1C[C@H](Nc2cc(C3CC3)cnc2C(=O)N(CC(C)C)[C@@H]2CNC[C@H](c3nc(C)no3)C2)C1` [Compound 29, (3S)—{N-(2-methylpropyl), N-{5-cyclopropyl-3-[3-(trans-methoxy)cyclobutyl]amino}pyridine-2-carbonyl}amino-(5R)-(3-methyl-1,2,4-oxadiazol-5-yl)-piperidine] cannot be ordered by IC50: under 10 nM for the first, under 10 nM for the second.

`CO[C@H]1C[C@H](Nc2cc(C3CC3)cnc2C(=O)N(CC(C)C)[C@@H]2CNC[C@H](CO)C2)C1` [Compound 35, (3S)—{N-(2-methylpropyl), N-{5-cyclopropyl-3-[3-(trans-methoxy)cyclobutyl]amino}pyridine-2-carbonyl}amino-(5R)-hydroxymethyl-piperidine] and `CO[C@H]1C[C@H](Nc2cc(C3CC3)cnc2C(=O)N(CC(C)C)[C@@H]2CNC[C@H](c3noc(C)n3)C2)C1` [Compound 28, (3S)—{N-(2-methylpropyl), N-{5-cyclopropyl-3-[3-(trans-methoxy)cyclobutyl]amino}pyridine-2-carbonyl}amino-(5R)-(5-methyl-1,2,4-oxadiazol-3-yl)-piperidine] cannot be ordered by IC50: under 20 nM for the first, under 10 nM for the second.

`CO[C@H]1C[C@H](Nc2cc(C3CC3)cnc2C(=O)N(CC(C)C)C2CNCC(C(=O)N3CCOC[C@H]3C)C2)C1` (stereo partly drawn) [Compound 14, (3S)—{N-(2-methylpropyl), N-{5-cyclopropyl-3-[3-(trans-methoxy)cyclobutyl]amino}pyridine-2-carbonyl}amino-(5R)-[(3R)-methylmorpholine-N-carbonyl]-piperidine] and `CC[C@H]1COCCN1C(=O)[C@H]1CNC[C@@H](N(CC(C)C)C(=O)c2ncc(C3CC3)cc2N[C@H]2C[C@H](OC)C2)C1` [Compound 27, (3S)—{N-(2-methylpropyl), N-{5-cyclopropyl-3-[3-(trans-methoxy)cyclobutyl]amino}pyridine-2-carbonyl}amino-(5R)-[(3S)-ethylmorpholine-N-carbonyl]-piperidine] cannot be ordered by IC50: 1.2 nM for the first, under 250 nM for the second.

`CO[C@H]1C[C@H](Nc2cc(C3CC3)nnc2C(=O)N(CC(C)C)[C@@H]2CNC[C@H](C(=O)N3CCOC[C@@H]3C)C2)C1` [Compound 33, (3S)—{N-(2-methylpropyl), N-{6-cyclopropyl-4-[3-(trans-methoxy)cyclobutyl]amino}pyridazine-3-carbonyl}amino-(5R)-[(3S)-3-methylmorpholine-4-carbonyl]-piperidine] and `CO[C@H]1C[C@H](Nc2cc(C3CC3)cnc2C(=O)N(CC(C)C)C2CNCC(C(=O)N3CCC(F)(F)C3)C2)C1` (stereo partly drawn) [Compound 11, (3S)—{N-(2-methylpropyl), N-{5-cyclopropyl-3-[3-(trans-methoxy)cyclobutyl]amino}pyridine-2-carbonyl}amino-(5R)-(3,3-difluoropyrrolidine-N-carbonyl)-piperidine] cannot be ordered by IC50: under 250 nM for the first, 1.2 nM for the second.

`CC(C)CN(C(=O)c1ncc(C(F)(F)F)cc1NC1COC1)[C@@H]1CNC[C@H](C(=O)N2CCOCC2)C1` [Compound 43, (3S)—{N-(2-methylpropyl), N-[5-trifluoromethyl-3-(oxetan-3-yl)amino]pyridine-2-carbonyl}amino-(5R)-(morpholine-N-carbonyl)-piperidine] and `CC(C)CN(C(=O)c1ncc(C2CC2)cc1NC1COC1)[C@@H]1CNC[C@H](C(=O)N2CCOCC2)C1` [Compound 30] cannot be ordered by IC50: under 10 nM for the first, under 10 nM for the second.

`CC(C)CN(C(=O)c1ncc(C2CC2)cc1NC1CC1)[C@@H]1CNC[C@H](C(=O)N2CCOCC2)C1` [Compound 25, (3S)—[N-(2-methylpropyl), N-(5-cyclopropyl-3-cyclopropylamino)pyridine-2-carbonyl]amino-(5R)-(morpholine-N-carbonyl)-piperidine] and `CC(C)CN(C(=O)c1ncc(C2CC2)cc1NC1CCC1)C1CNCC(C(=O)N2CCOCC2)C1` [Compound 20, (3S)—[N-(2-methylpropyl), N-(5-cyclopropyl-3-cyclobutylamino)pyridine-2-carbonyl]amino-(5R)-(morpholine-N-carbonyl)-piperidine] cannot be ordered by IC50: under 10 nM for the first, 1.9 nM for the second.

Compound `CO[C@H]1C[C@H](Nc2nc(C(C)(C)C)ncc2C(=O)N(CC(C)C)C2CNCC(C(=O)N3CCOCC3)C2)C1` (stereo partly drawn) [Compound 17, (3S)—{N-(2-methylpropyl), N-{2-tert-butyl-3-[3-(trans-methoxy)cyclobutyl]amino}pyrimidine-5-carbonyl}amino-(5R)-(morpholine-N-carbonyl)-piperidine] has an IC50 of 1.5 nM.
